Experiment [1] has as its system mice. Conditions: cited from earlier work.
The test system of experiment [2] is mice. To be noted: animal models; NPL 19 / NPL 21; cited from earlier work.
Another experiment has as its system rat. Conditions: cited from earlier work.
In another experiment the test system is Balb/c male mice. Kind of experiment: DSS model (DSS-induced colitis). It is filed as in vivo, mouse. Conditions: 2.5% DSS for 7 days; 3 or 30 mg/kg orally for 7 days; evaluated day 11. As to the method:
Eight weeks-old Balb/c male mice were used in the study. Mice were allocated to four groups; normal control group, disease control group receiving vehicle, and two disease groups receiving different dose of Compound B. Colitis was induced by drinking 2.5% DSS (average molecular weight of 5,000) dissolved in water for 7 days. Compound B in 0.5% methyl cellulose solution (at a dose of 3 or 30 mg/kg) was orally administered for 7 days. The mice were sacrificed on day 11 and the colon was harvested for the evaluation. Colon length, colon weight, and histology score were analyzed. Histology score was determined as follows; 0=no signs of damage; 1=moderate inflammation; 2=severe inflammation.

The test system of another experiment is C57BL/6 male mice. Description: Allergic contact dermatitis and psoriasis model (picryl chloride, ear swelling). The format is in vivo, mouse. As to the method:
Eight weeks-old C57BL/6 male mice were used in the study. Mice were sensitized with 0.1 mL of 7% picryl chloride-ethanol on shaved abdominal skin on day O, Seven days later, the mice were treated with 0.02 mL of 1% picryl chloride-olive oil on both sides of the ear by painting. Ear thickness was measured using a thickness gage before the treatment, and 24 and 48 hours after the treatment, and the difference of ear thickness was used as a parameter of ear swelling. Compound B suspended in 0.5% methyl cellulose solution (at a dose of 3 or 30 mg/kg) was administered orally either during the entire experimental period (days 0 to 11) or elicitation (E) period (days 8 to 10).

In the next experiment the test system is mouse CD11c (+) cells. Description: IL-23 production in CD11c dendritic cells (ELISA). It is filed as cell-based. Conditions: 10, 100, or 1000 nM; antibody to CD40, 36 hours; supernatant ELISA. As to the method:
CD11c dendritic cells (DCs) from the spleens of C57BL/6 mice were purified by auto-magnetic activated cell sorting. The DCs were cultured in a 96-well plate at a density of 6×10^5 cells per well in the presence of 10 microgram/mL antibody to CD40 for 36 hours. Compounds listed in FIG. 1, that is, Compound A (3-[2-(4-{2-ethyl-4,6-dimethyl-1H-imidazo[4,5-c]pyridin-1-yl}phenyl)ethyl]-1-[(4-methylbenzene)sulfonyl]urea) and Compound B (4-[(1S)-1-({[5-chloro-2-(3-fluorophenoxy)pyridin-3-yl]carbonyl}amino)ethyl]benzoic acid) were added at the beginning of incubation at a dose of 10, 100, or 1000 nM. The supernatant collected at the end of culture was measured by ELISA for IL-23.
On the technique in general: ELISA stands for enzyme-linked immunosorbent assay.

For experiment [3] the following is noted: NPL 26; cited from earlier work.
For experiment [4] the following is noted: NPL 27; cited from earlier work.

Data on seven compounds can be found in US9457084B2, “Use of EP4 receptor antagonists in the treatment of IL-23 mediated diseases” (RAQUALIA PHARMA INC., priority 2010, dated 2016).

“Also recorded” adds a separate entry of the source.

Consider `CC(C(=O)Nc1cc(C#N)ccc1CCCC(=O)O)c1ccc(F)c2ccccc12` (centres unmarked) [AE3-208], for which the “effect on allergic contact dermatitis” value in the experiment on mice [1] (animal models, NPL 19) is given as “ameliorate”. The “efficacy on the development (sensitization) of allergic contact dermatitis” value in the experiment with mice [1] (prophylactic (sensitization), NPL 25) was “potent inhibitory efficacy”. Besides, in the experiment on mice [1] (therapeutic treatment, NPL 25), the “efficacy by therapeutic treatment in allergic contact dermatitis” value is given as “failed to show the efficacy”. For the same compound, the “effect on MS” value in the experiment with mice [2] was “treat MS; also recorded: ameliorate”. The “effect on DSS-induced colitis” value in the experiment on rat is “aggravated”.

As to `CCc1nc2c(C)nc(C)cc2n1-c1ccc(CCNC(=O)NS(=O)(=O)c2ccc(C)cc2)cc1` [Compound A, 3-[2-(4-{2-ethyl-4,6-dimethyl-1H-imidazo[4,5-c]pyridin-1-yl}phenyl)ethyl]-1-[(4-methylbenzene)sulfonyl]urea], in the experiment on Balb/c male mice, the colitis score entry is “Dose-dependent reduction” and the colon weight/length result was “Dose-dependent reduction”. Also, the ear swelling entry with C57BL/6 male mice (treatment period not stated) was “dose-dependent reduction”. The “inhibition of IL-23 production” value with mouse CD11c (+) cells is “dose-dependent inhibition”.

Regarding `C[C@H](NC(=O)c1cc(Cl)cnc1Oc1cccc(F)c1)c1ccc(C(=O)O)cc1` [Compound B, 4-[(1S)-1-({[5-chloro-2-(3-fluorophenoxy)pyridin-3-yl]carbonyl}amino)ethyl]benzoic acid], the colitis score entry in the experiment on Balb/c male mice is “restored”. In the experiment on Balb/c male mice, the colon weight/length entry is “restored”. Also, the ear swelling entry in the experiment with C57BL/6 male mice (3 or 30 mg/kg orally during elicitation (E) period (days 8 to 10)) and in the experiment on C57BL/6 male mice (3 or 30 mg/kg orally during entire experimental period (days 0 to 11)) was “significantly reduced” throughout. Further, the “maximum efficacy on ear swelling compared with prednisolone (Pred)” value in the experiment on C57BL/6 male mice (mouse, in vivo) was “equal to that of prednisolone”. Also, in the experiment on mouse CD11c (+) cells, the “inhibition of IL-23 production” value was “dose-dependent inhibition”.

For `C[C@H](NC(=O)c1cc(Cl)cnc1COc1cccc(Cl)c1)c1ccc(C(=O)O)cc1` [Compound C, 4-{(1S)-1-[({5-chloro-2-[(3-chlorophenoxy)methyl]pyridin-3-yl}carbonyl)amino]ethyl}benzoic acid], in the experiment with Balb/c male mice, the colitis score result is reported as “Dose-dependent reduction” and the colon weight/length result is recorded as “Dose-dependent reduction”. The ear swelling result with C57BL/6 male mice (treatment period not stated) is given as “dose-dependent reduction”.

As for `COc1ccc(-c2ccc(OCc3cc(C(=O)NS(=O)(=O)c4ccccc4C)oc3C)cc2)nc1` [Compound D, 4-((4-(5-methoxypyridin-2-yl)phenoxy)methyl)-5-methyl-N-(o-tolylsulfonyl)furan-2-carboxamide], in the experiment on Balb/c male mice, the colitis score entry is “Dose-dependent reduction” and the colon weight/length entry was “Dose-dependent reduction”. Moreover, the ear swelling result in the experiment on C57BL/6 male mice (treatment period not stated) is on record as “dose-dependent reduction”.

Consider `Cc1sc(C)c(C(=O)NC2(c3ccc(C(=O)O)cc3)CC2)c1Cc1ccc(C(F)(F)F)cc1` [Compound E, 4-{1-[({2,5-dimethyl-4-[4-(trifluoromethyl)benzyl]-3-thienyl}carbonyl)amino]cyclopropyl}benzoic acid], for which, in the experiment with Balb/c male mice, the colitis score result is “Dose-dependent reduction” and the colon weight/length result is recorded as “Dose-dependent reduction”. In addition, the ear swelling result with C57BL/6 male mice (treatment period not stated) was “dose-dependent reduction”.

In the case of `COc1ccc2c(c1)c(CC(=O)O)c(C)n2C(=O)c1ccc(Cl)cc1` [indomethacin], in experiment [3], the “effect on DSS-induced colitis” value is recorded as “aggravated”. The “effect on allergic contact dermatitis” value in experiment [4] is recorded as “worse”.
